The results in this text go back to patent US9085555B2, “Complement pathway modulators and uses thereof” (priority 2011, dated 2015).

The assay addresses Factor D (Homo sapiens (Human), UniProt P00746). Put plainly: biochemical. Type of assay: biochemical. The conditions noted are these: read-out: IC50.

Factor D, sequence (P00746 26-253): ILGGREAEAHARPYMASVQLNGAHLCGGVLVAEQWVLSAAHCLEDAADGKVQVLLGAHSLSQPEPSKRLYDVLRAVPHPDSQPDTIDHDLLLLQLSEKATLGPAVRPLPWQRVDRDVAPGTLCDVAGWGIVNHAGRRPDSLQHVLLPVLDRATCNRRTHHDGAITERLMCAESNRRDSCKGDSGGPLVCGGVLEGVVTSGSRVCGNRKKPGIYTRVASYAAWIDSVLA

Take `NC(=O)c1nn(CC(=O)N2[C@@H]3C[C@@H]3C[C@H]2C(=O)Nc2cccc(-c3ccccc3Cl)c2F)c2cnccc12` [Example 685, 1-{2-[(1R,3S,5R)-3-(2′-Chloro-2-fluoro-biphenyl-3-ylcarbamoyl)-2-aza-bicyclo[3.1.0]hex-2-yl]-2-oxo-ethyl}-1H-pyrazolo[3,4-c] pyridine-3-carboxylic acid amide]: the IC50 was 5 nM.

For the compound `NC(=O)c1nn(CC(=O)N2[C@@H]3C[C@@H]3C[C@H]2C(=O)Nc2cccc(-c3ncccc3F)c2F)c2ccccc12` [Example 686, 1-(2-{(1R,3S,5R)-3-[2-Fluoro-3-(3-fluoro-pyridin-2-yl)-phenylcarbamoyl]-2-aza-bicyclo[3.1.0]hex-2-yl}-2-oxo-ethyl)-1H-indazole-3-carboxylic acid amide], the IC50 is 30 nM.

Consider `Cc1cccnc1-c1cccc(NC(=O)[C@@H]2C[C@H]3C[C@H]3N2C(=O)Cn2nc(C(N)=O)c3ccncc32)c1F` [Example 687, 1-(2-{(1R,3S,5R)-3-[2-Fluoro-3-(3-methyl-pyridin-2-yl)-phenylcarbamoyl]-2-aza-bicyclo[3.1.0]hex-2-yl}-2-oxo-ethyl)-1H-pyrazolo[3,4-c] pyridine-3-carboxylic acid amide], for which the IC50 worked out at 98 nM.

As for `NC(=O)c1nn(CC(=O)N2[C@@H]3C[C@@H]3C[C@H]2C(=O)Nc2cccc(-c3ncccc3Cl)c2F)c2cnccc12` [Example 688, 1-(2-{(1R,3S,5R)-3-[3-(3-Chloro-pyridin-2-yl)-2-fluoro-phenylcarbamoyl]-2-aza-bicyclo[3.1.0]hex-2-yl}-2-oxo-ethyl)-1H-pyrazolo[3,4-c] pyridine-3-carboxylic acid amide], the IC50 came out at 10 nM.

With `COC(=O)c1ccc2c(C(C)=O)cn(CC(=O)N3[C@@H]4C[C@@H]4C[C@H]3C(=O)NCc3cccc(Cl)c3F)c2n1` [Example 689, 3-Acetyl-1-{2-[(1R,3S,5R)-3-(3-chloro-2-fluoro-benzylcarbamoyl)-2-aza-bicyclo[3.1.0]hex-2-yl]-2-oxo-ethyl}-1H-pyrrolo[2,3-b] pyridine-6-carboxylic acid methyl ester], the IC50 amounted to 156 nM.

For `C[C@@H](NC(=O)[C@@H]1C[C@@H](F)CN1C(=O)Cn1nc(C(N)=O)c2ccncc21)c1cccc(Cl)c1F` [Example 690, 1-(2-{(2S,4R)-2-[(R)-1-(3-Chloro-2-fluoro-phenyl)-ethylcarbamoyl]-4-fluoro-pyrrolidin-1-yl}-2-oxo-ethyl)-1H-pyrazolo[3,4-c]pyridine-3-carboxylic acid amide], the IC50 worked out at 34 nM.

On to `Cc1cc2c(C(N)=O)nn(CC(=O)N3C[C@H](F)C[C@H]3C(=O)N[C@H](C)c3cccc(Cl)c3F)c2cn1` [Example 691, 1-(2-{(2S,4R)-2-[(R)-1-(3-Chloro-2-fluoro-phenyl)-ethylcarbamoyl]-4-fluoro-pyrrolidin-1-yl}-2-oxo-ethyl)-5-methyl-1H-pyrazolo[3,4-c] pyridine-3-carboxylic acid amide], for which the IC50 is 68 nM.

With `NC(=O)c1nn(CC(=O)N2[C@@H]3C[C@@H]3C[C@H]2C(=O)NCc2cccc(Cl)c2F)c2ccccc12` [Example 692, 1-{2-[(1R,3S,5R)-3-(3-Chloro-2-fluoro-benzylcarbamoyl)-2-aza-bicyclo[3.1.0]hex-2-yl]-2-oxo-ethyl}-1H-indazole-3-carboxylic acid amide], the IC50 came out at 3 nM.

Regarding `Cc1nccc2c(C(N)=O)nn(CC(=O)N3[C@@H]4C[C@@H]4C[C@H]3C(=O)N[C@H](C)c3cccc(Cl)c3F)c12` [Example 693, 1-(2-{(1R,3S,5R)-3-[(R)-1-(3-Chloro-2-fluoro-phenyl)-ethylcarbamoyl]-2-aza-bicyclo[3.1.0]hex-2-yl}-2-oxo-ethyl)-7-methyl-1H-pyrazolo[3,4-c]pyridine-3-carboxylic acid amide], the IC50 was 6 nM.

The term IC50 denotes the concentration that inhibits the measured activity by half.
